Measurements from patent publication US12178821B2, “Combination therapies for the treatment of cancer” (Curis, Inc., priority 2021, dated 2024).
Entries after “also recorded” stand apart in the source; their conditions may differ. Where two headings read alike, the source gives them in different places.

Columns and labels:
[1] = concentration used in the combination experiments; cited from earlier work
F-36P = experiment: CellTiter Glo cell viability assay, GI50, 72 hrs; format: cell-based
Experimental: (§1) CellTiter Glo cell viability assay was used to evaluate the antitumor effects of Compound 1 in combination with AML SOC drugs daunorubicin, Ara-C, decitabine, azacitidine and venetoclax in FLT3-WT AML cell lines THP-1, F-36P, OCl-AML2 and GDM-1. GI50 (the concentration for 50% of maximal inhibition of cell proliferation) was determined for each drug in AML cell lines.
(§2) Cells were treated for 72 hrs. Relative cell viability was measured by CellTiter Glo assay (Promega, Madison, WI) at 0 and at 72 hrs. GI50 was calculated using GraphPad Prism 8.0 software.

THP-1 = experiment: CellTiter Glo cell viability assay, GI50, 72 hrs; format: cell-based
Experimental: as §1, §2

OC1-AML2 = experiment: CellTiter Glo cell viability assay, GI50, 72 hrs; format: cell-based
Experimental: as §1, §2

GDM-1 = experiment: CellTiter Glo cell viability assay, GI50, 72 hrs; format: cell-based
Experimental: as §1, §2

[2] = tested on: FLT3-WT AML cell lines THP-1, F-36P, OCl-AML2 and GDM-1; experiment: CellTiter Glo combination experiments summarised over the cell line panel; format: cell-based; conditions: 4 FLT3-WT AML cell lines, 96 hrs, clinically relevant drug concentration
Experimental: as §1, with “lines. Either GI50 (below peak plasma concentration) or peak plasma concentration (if GI50 was higher than peak plasma concentration) of each drug was used as clinically relevant concentration for combination experiments.” for “lines.”
Cells were treated continuously with clinically relevant drug concentration for 96 hrs. Relative cell viability was measured by CellTiter Glo assay (Promega, Madison, WI) at 0 and at 96 hrs according to manufacturer's instructions. All values are presented as mean±SE. Cell viability assay data were analyzed with one-way ANOVA. P values less than 0.05 were considered significant. Statistical analysis was performed using GraphPad Prism 8.0 software. + Less than 50% growth inhibition, p<0.05; ++ 50-100% growth inhibition, p<0.05; +++ Induction of cell death (cytotoxic effect), p<0.05; NS, not significant; ND, not defined. *Venetoclax resistant cell line, **Azacitidine/Decitabine resistant cell line. Clinically relevant conc (peak plasma conc): Compound 1-10 μM; Venetoclax—1 μM; and Azacitidine—4 μM.

[3] = F-36P cells, treated for 72 hrs, CellTiter Glo, read-out: GI50
[4] = Homo sapiens, THP-1 cells, treated for 72 hrs, CellTiter Glo, read-out: GI50
[5] = OC1-AML2 cells, treated for 72 hrs, CellTiter Glo, read-out: GI50
[6] = Homo sapiens, GDM-1 cells, treated for 72 hrs, CellTiter Glo, read-out: GI50

| SMILES | GI50 (THP-1; [4]) [nM] | GI50 (THP-1; THP-1 cells, treated for 72 hrs, CellTiter Glo, read-out: GI50) [nM] | Clinically relevant conc (peak plasma conc) [1] [µM] | GI50 (F-36P; [3]) [nM] | GI50 (OC1-AML2; [5]) [nM] | resistance of the cell line to the treatment (OC1-AML2; OCl-AML2) | GI50 (GDM-1; [6]) [nM] | GI50 (F-36P; 72 h) [nM] | GI50 (THP-1; Homo sapiens, THP-1, 72 h) [nM] | GI50 (OC1-AML2; 72 h) [nM] | GI50 (GDM-1; Homo sapiens, GDM-1, 72 h) [nM] | antitumor effect of the combination over the cell line panel, in words [2] | GI50 (GDM-1; GDM-1 cells, treated for 72 hrs, CellTiter Glo, read-out: GI50) [nM] |
| --- | --- | --- | --- | --- | --- | --- | --- | --- | --- | --- | --- | --- | --- |
| CC1(C)CCC(CN2CCN(c3ccc(C(=O)NS(=O)(=O)c4ccc(NCC5CCOCC5)c([N+](=O)[O-])c4)c(Oc4cnc5[nH]ccc5c4)c3)CC2)=C(c2ccc(Cl)cc2)C1 [Venetoclax] | 18000 | – | 1 | 18000 | 2 | – | 5 | – | – | – | – | – | – |
| Nc1ncn([C@H]2C[C@H](O)[C@@H](CO)O2)c(=O)n1 [Decitabine] | – | – | – | – | – | – | – | 200 | 150 | 18000 | 80 | – | – |
| Cc1cc(-c2nc(C(=O)Nc3cc4oc(N5CCOCC5)nc4nc3N3CC[C@@H](O)C3)co2)ccn1 [Compound 1] | > 20000 | – | 10 | > 20000 | 13000 | – | > 20000 | – | – | – | – | potentiated antitumor effects of azacitidine in 3 of 4 FLT3-WT AML cell lines; also recorded: significantly potentiated antitumor effects of azacitidine+venetoclax in all AML FLT3-WT cell lines | – |
| COc1cccc2c1C(=O)c1c(O)c3c(c(O)c1C2=O)C[C@@](O)(C(C)=O)C[C@@H]3O[C@H]1C[C@H](N)[C@H](O)[C@H](C)O1 [Daunorubicin] | – | – | – | – | – | – | – | 100 | 5 | 5 | 10 | – | – |

The next lines start with results.

| GI50 (THP-1; [4]) [nM] | GI50 (THP-1; THP-1 cells, treated for 72 hrs, CellTiter Glo, read-out: GI50) [nM] | SMILES | Clinically relevant conc (peak plasma conc) [1] [µM] | GI50 (F-36P; [3]) [nM] | GI50 (OC1-AML2; [5]) [nM] | resistance of the cell line to the treatment (OC1-AML2; OCl-AML2) | GI50 (GDM-1; [6]) [nM] | GI50 (F-36P; 72 h) [nM] | GI50 (THP-1; Homo sapiens, THP-1, 72 h) [nM] | GI50 (OC1-AML2; 72 h) [nM] | GI50 (GDM-1; Homo sapiens, GDM-1, 72 h) [nM] | antitumor effect of the combination over the cell line panel, in words [2] | GI50 (GDM-1; GDM-1 cells, treated for 72 hrs, CellTiter Glo, read-out: GI50) [nM] |
| --- | --- | --- | --- | --- | --- | --- | --- | --- | --- | --- | --- | --- | --- |
| 3000 | – | Nc1ncn([C@@H]2O[C@H](CO)[C@@H](O)[C@H]2O)c(=O)n1 [Azacitidine] | 4 | 4000 | 30000 | resistant | 2000 | – | – | – | – | – | – |
| – | 150 | Nc1ccn([C@@H]2O[C@H](CO)[C@@H](O)[C@@H]2O)c(=O)n1 [Ara-C] | – | 150 | 4000 | – | – | – | – | – | – | – | 5 |
